Data published in patent US6258790A, “Antisense modulation of integrin α4 expression” (Isis Pharmaceuticals, Inc., priority 1999, dated 2001).

Test system: human integrin α4
Test: Inhibition of human integrin α4 protein levels by antisense oligonucleotides (LIPOFECTIN, flow cytometry with CD49d-FITC) in A375 melanoma cells
Format: cell-based
Conditions: for % Control (integrin α4 protein) / % Inhib (integrin α4 protein): Table 1, A375 cells, 200 nM oligonucleotide, 6 ug/ml LIPOFECTIN; for inhibition (Example 11): Example 11 assay, dose not stated; for % CONTROL 48 hr / % INHIB 48 hr / % CONTROL 72 hr / % INHIB 72 HR: Table 2, A375; for % Control / % Inhib.: Table 6
Description: Integrin α4 protein levels can be quantitated in a variety of ways well known in the art, such as immunoprecipitation, Western blot analysis (immunoblotting), ELISA or fluorescence-activated cell sorting (FACS). Antibodies directed to integrin α4 can be identified and obtained from a variety of sources, such as the MSRS catalog of antibodies (Aerie Corporation, Birmingham, Mich.), or can be prepared via conventional antibody generation methods.
Target sites are indicated by nucleotide numbers, as given in the sequence source reference (GenBank accession no. L12002), to which the oligonucleotide binds. All compounds in Table 1 are 18 nucleotides in length, with a phosphorothioate backbone and a centered 10-base deoxynucleotide gap flanked by 2'-methoxyethoxy (2'MOE) wings. Human A375 melanoma cells (American Type Culture Collection, Manassas, Va.) were plated at 2000 cells/cm^2 two days before oligonucleotide treatment. Cells were treated with oligonucleotides at a dose of 200 nM oligonucleotide and 6 ug/ml LIPOFECTIN for four hours. Cells were incubated overnight and harvested with 2 mM EDTA in PBS. Cells were washed in 2% bovine serum albumin, 0.2% sodium azide in D-PBS at 4° C. Cells were centrifuged at 200×g, and the supernatant was decanted. […] Antibodies were incubated with the cells for 30 minutes at 4° C. in the dark, under gentle agitation. Cells were washed again as above and then resuspended in 0.3 ml of FacsFlow buffer with 0.5% formaldehyde. Cells were analyzed on Becton Dickinson FACScan. Results are expressed as percentage of control expression based on mean fluorescence intensity.
Cells were harvested with trypsin at 48 and 72 hours after oligonucleotide treatment and stained with 2 ug/ml CD49d-FITC as in the previous example.
Where backbones are mixed, linkages are shown as "s" for phosphorothioate (P=S or PS) and "o" for phosphodiester (P=O or PO). Where target region is indicated as `M62841,` oligonucleotides are targeted to the promotor region whose sequence is described in GenBank Accession No. M62841. Remaining oligonucleotides are targeted to the sequence described in Genbank Accession No. L12002 and their target sites on the L12002 sequence are indicated.
Target sites refer to nucleotide numbers on the target sequence (GenBank Accession No. L12002) to which the oligonucleotides hybridize.
Oligonucleotides were synthesized as "gapmers" consisting of a 9-nucleotide region of deoxynucleotides flanked by three 2'-O-methoxyethyl(2'-MOE) nucleotides on the 5' end and eight 2'-MOE nucleotides on the 3' end. 2'-MOE nucleotides are shown in bold in the table. Oligonucleotides were synthesized with phosphorothioate backbones throughout, and all cytosines are 5-methylcytosines.

24439 (CTCCGTCTCTGCCTACGC; chemistry not given here) [compound 24439]
% Control (integrin α4 protein): 120%

24440 (CGGGTGCTCGCGCTGCTT; chemistry not given here) [compound 24440]
% Control (integrin α4 protein): 101%

24441 (CCTGGGATGCCGCGCACT; chemistry not given here) [compound 24441]
% Control (integrin α4 protein): 112%

24442 (ATGAGGCGCAGCGTGTCC; chemistry not given here) [compound 24442]
% Control (integrin α4 protein): 82% | % Inhib (integrin α4 protein): 18%

24443 (CAAAGTTGCACGGGATGC; chemistry not given here) [compound 24443]
% Control (integrin α4 protein): 63% | % Inhib (integrin α4 protein): 37%

24444 (GGAACATTCAACACTAAG; chemistry not given here) [compound 24444]
% Control (integrin α4 protein): 68% | % Inhib (integrin α4 protein): 32%

24445 (CCCGGGTTCGCGCCTCGC; chemistry not given here) [compound 24445]
% Control (integrin α4 protein): 73% | % Inhib (integrin α4 protein): 27%

24446 (GCGCGCTCTCAGTGTCCA; chemistry not given here) [compound 24446]
% Control (integrin α4 protein): 58% | % Inhib (integrin α4 protein): 42%

24447 (GTGGCTGTGCAGCACGAC; chemistry not given here) [compound 24447]
% Control (integrin α4 protein): 76% | % Inhib (integrin α4 protein): 24%

24448 (ACTGAAGCGTTGGCGAGC; chemistry not given here) [compound 24448]
% Control (integrin α4 protein): 55% | % Inhib (integrin α4 protein): 45%

24449 (GCACGTCTGGCCGGGATT; chemistry not given here) [compound 24449]
% Control (integrin α4 protein): 61% | % Inhib (integrin α4 protein): 39%

24451 (CCACTGATTGTCTCTCTC; chemistry not given here) [compound 24451]
inhibition (Example 11): ≥ 40% | % Control (integrin α4 protein): 51% | % CONTROL 48 hr (50 nM): 63% | % INHIB 48 hr (50 nM): 37% | % CONTROL 48 hr (100 nM): 44% | % INHIB 48 hr (100 nM): 56% | % CONTROL 48 hr (200 nM): 34% | % INHIB 48 hr (200 nM): 66% | % CONTROL 48 hr (400 nM): 44% | % INHIB 48 hr (400 nM): 56% | % Control (10 nM): 96% | % Control (30 nM): 77% | % Inhib. (30 nM): 23% | % Control (100 nM): 66% | % Inhib. (100 nM): 34% | % Control (300 nM): 35% | % Inhib. (300 nM (highest dose)): 65%

24452 (GGATCCATTTTCTCCTGG; chemistry not given here) [compound 24452]
% Control (integrin α4 protein): 60% | % Inhib (integrin α4 protein): 40%

24453 (GCTTATTTTCATTCTTTA; chemistry not given here) [compound 24453]
inhibition (Example 11): ≥ 40% | % Control (integrin α4 protein): 47% | % CONTROL 48 hr (50 nM): 79% | % INHIB 48 hr (50 nM): 21% | % CONTROL 72 hr (50 nM): 78% | % INHIB 72 HR (50 nM): 22% | % CONTROL 48 hr (100 nM): 95% | % CONTROL 72 hr (100 nM): 93% | % CONTROL 48 hr (200 nM): 38% | % INHIB 48 hr (200 nM): 62% | % CONTROL 72 hr (200 nM): 64% | % INHIB 72 HR (200 nM): 36% | % CONTROL 48 hr (400 nM): 41% | % INHIB 48 hr (400 nM): 59% | % CONTROL 72 hr (400 nM): 58% | % INHIB 72 HR (400 nM): 42% | % Control (10 nM): 88% | % Inhib. (10 nM): 12% | % Control (30 nM): 90% | % Inhib. (30 nM): 10% | % Control (100 nM): 80% | % Inhib. (100 nM): 20% | % Control (300 nM): 43% | % Inhib. (300 nM (highest dose)): 57%

24454 (TTCTTTTACTCAGTTCTG; chemistry not given here) [compound 24454]
% Control (integrin α4 protein): 53% | % Inhib (integrin α4 protein): 47%

24455 (TCACATAATCTTGATAAC; chemistry not given here) [compound 24455]
% Control (integrin α4 protein): 81% | % Inhib (integrin α4 protein): 19%

24456 (CCCATCACAATTAAATCC; chemistry not given here) [compound 24456]
% Control (integrin α4 protein): 76% | % Inhib (integrin α4 protein): 24%

24457 (TTATTTGTAGTTATATTG; chemistry not given here) [compound 24457]
% Control (integrin α4 protein): 106%

24458 (CCTAAATAACTTCCAAAT; chemistry not given here) [compound 24458]
% Control (integrin α4 protein): 88% | % Inhib (integrin α4 protein): 12%

24459 (GAAAATGACCAGCTCCGA; chemistry not given here) [compound 24459]
% Control (integrin α4 protein): 61% | % Inhib (integrin α4 protein): 39%

24460 (TTTCATGTAAGATATTTA; chemistry not given here) [compound 24460]
% Control (integrin α4 protein): 94%

24461 (CCACAGCACAGACAGAAG; chemistry not given here) [compound 24461]
% Control (integrin α4 protein): 69% | % Inhib (integrin α4 protein): 31%

24462 (TGGTGCTCTGCATGGGTG; chemistry not given here) [compound 24462]
% Control (integrin α4 protein): 65% | % Inhib (integrin α4 protein): 35%

24463 (TACACAAACACTCTTCCT; chemistry not given here) [compound 24463]
% Control (integrin α4 protein): 101%

24464 (TTTGTTTCCATTGCATTC; chemistry not given here) [compound 24464]
% Control (integrin α4 protein): 62% | % Inhib (integrin α4 protein): 38%

24465 (TGCAGCATATTTGTCACT; chemistry not given here) [compound 24465]
% Control (integrin α4 protein): 63% | % Inhib (integrin α4 protein): 37%

24466 (TTGTCAATGTCGCCAAGA; chemistry not given here) [compound 24466]
% Control (integrin α4 protein): 64% | % Inhib (integrin α4 protein): 36%

24467 (TCATCTTCTTGTGGAGCT; chemistry not given here) [compound 24467]
% Control (integrin α4 protein): 101%

24468 (CCATCTGCACGGCCATTG; chemistry not given here) [compound 24468]
% Control (integrin α4 protein): 72% | % Inhib (integrin α4 protein): 28%

24469 (GTCCAAACATACTTAACG; chemistry not given here) [compound 24469]
% Control (integrin α4 protein): 68% | % Inhib (integrin α4 protein): 32%

24470 (TATCTGCATCAATTTGTC; chemistry not given here) [compound 24470]
% Control (integrin α4 protein): 83% | % Inhib (integrin α4 protein): 17%

24471 (ACCGAAAAGCACCAACTG; chemistry not given here) [compound 24471]
% Control (integrin α4 protein): 80% | % Inhib (integrin α4 protein): 20%

24472 (CTTGTCCTTAGCAAGACA; chemistry not given here) [compound 24472]
% Control (integrin α4 protein): 65% | % Inhib (integrin α4 protein): 35%

24473 (TCAGGGTGGCTTAAAGAA; chemistry not given here) [compound 24473]
inhibition (Example 11): ≥ 40% | % Control (integrin α4 protein): 53% | % CONTROL 48 hr (50 nM): 77% | % INHIB 48 hr (50 nM): 23% | % CONTROL 72 hr (50 nM): 85% | % INHIB 72 HR (50 nM): 35% | % CONTROL 48 hr (100 nM): 49% | % INHIB 48 hr (100 nM): 51% | % CONTROL 72 hr (100 nM): 77% | % INHIB 72 HR (100 nM): 23% | % CONTROL 48 hr (200 nM): 39% | % INHIB 48 hr (200 nM): 61% | % CONTROL 72 hr (200 nM): 61% | % INHIB 72 HR (200 nM): 39% | % CONTROL 48 hr (400 nM): 42% | % INHIB 48 hr (400 nM): 58% | % CONTROL 72 hr (400 nM): 56% | % INHIB 72 HR (400 nM): 44% | % Control (10 nM): 103% | % Control (30 nM): 92% | % Control (100 nM): 81% | % Inhib. (100 nM): 19% | % Control (300 nM): 47% | % Inhib. (300 nM (highest dose)): 53%

24474 (ATCCATTTTCAACACAGT; chemistry not given here) [compound 24474]
% Control (integrin α4 protein): 71% | % Inhib (integrin α4 protein): 29%
